{
  "source": "patent US20030185864A1",
  "about": "“Preventives or remedies for atopic dermatitis” (priority 2000, published 2003)",
  "key": {"[1]": {"test_system": "auricular edema in atopic dermatitis-induced model mice (Type I and Type IV Allergy Models)", "assay": "Auricular edema inhibition in atopic dermatitis-induced model mice (type I and type IV allergy models, DNCB)", "type": "in vivo, NC/Nga mouse", "settings": "for Relative auricular edema increase (%): 3% by weight, 20 μl to both sides of auricle once a day, mean ± SD, n=6", "experimental": "Test Compositions 9 and 10 were obtained by preparing 30% by weight ethanol solutions containing 0 and 3.0% by weight, respectively, of N-acetyl-trans-4-hydroxy-L-proline. The pH values of the aqueous solutions were adjusted to 4.5 with sodium hydroxide.\nAtopic dermatitis using NC/Nga mice was carried out in a manner similar to the method of Fujii et al. [Fundamentals and Clinics (Kiso-to-Rinsho), 31(8), 2693 (1997)]. Auricular edema was induced by applying 20 μl of 1.5% dinitrochlorobenzene (DNCB) to both sides of the auricle of NC/Nga mouse (male, 8 week old, available from Charles River Japan, Inc.), once a day at a predetermined time in the 1st, 3rd and 7th days after starting of the test. Each of Test Compositions 9 and 10 was applied at 20 μl to both sides of the auricle as the tested region, 6 hours after the application of DNCB and once a day every day from the 1st day after starting of the test. The mice were used as six animals per each group.\nJust before the application of the test compositions to the auricle on the 11th, 12th, 14th and 17th days after starting of the test, a thickness of the auricle was measured using a dial thickness gauge (G-1A, manufactured by PEACOCK), and the relative auricular edema increase (%) was calculated in accordance with the following equation.\n(§1) Relative auricular edema increase (%)=[(A1×B2)/(A2×B1)]×100\n(§2) A1: Thickness of auricle after passed days in tested mice\n(§3) A2: Thickness of auricle at the time of starting of the test in tested mice\n(§4) B1: Thickness of auricle after passed days in untreated mice\n(§5) B2: Thickness of auricle at the time of starting of the test in untreated mice"}, "[2]": {"test_system": "epidermal ceramide synthesis", "assay": "Evaluation of the amount of epidermal ceramide synthesis in hairless mice", "type": "in vivo, hairless mouse (SKH1:hr/hr:BR)", "settings": "for Relative amount of total ceramide synthesis (%) / Relative amount of ceramide III synthesis (%): relative to untreated mice; for Relative amount of ceramide III synthesis (%): 200 μl to dorsal skin once a day for one month, ceramide III = ceramides 1 and 2", "experimental": "Test Compositions 1 to 5 were obtained by preparing 30% by weight aqueous ethanol solutions containing 0, 1.0, 3.0, 5.0 and 10.0% by weight, respectively, of N-acetyl-trans-4-hydroxy-L-proline. The pH values of the aqueous solutions were adjusted to 4.5 with sodium hydroxide.\nEach of Test Compositions 1 to 5 was applied at 200 μl to the entire dorsal area as the tested region of each hairless mouse (SKH1:hr/hr:BR, male, 7 week old, available from Charles River Japan, Inc.) once a day for one month. The mice were used as four animals per each group.\nBefore starting of the application and one month after starting of the application, epidermal lipids were extracted from the entire dorsal area as the tested region of each mouse, and the activity of N-acetyl-trans-4-hydroxy-L-proline to synthesize ceramide was evaluated by measuring the ceramide content.\nThe epidermal lipids were obtained by extraction with 95% ethanol and further extracting the extract with hexane:methanol (2:3), followed by drying. The resulting epidermal lipids were dissolved in chloroform and separated by using silica gel thin layer chromatography in a manner similar to the method of Imokawa et al. [Journal of Investigative Dermatology, 96, 523 (1991)], and then the ceramide content was measured using a flying-spot scanning densitometer (manufactured by Shimadzu Corporation, CS-9000).\nThe ceramide content was calculated in accordance with the following equation, as the relative value to the change in the amount of ceramide synthesis in untreated mice.\nRelative amount of ceramide synthesis (%)=[(A1×B2)/(A2×B1)]×100\nA1: Ceramide content after application in tested mice\nA2: Ceramide content before application in tested mice\nB1: Ceramide content after application in untreated mice\nB2: Ceramide content before application in untreated mice\nSince it is known that the ceramides exist in several isomer forms, the calculation was carried out on each of the amount of total ceramide synthesis and those of syntheses of various ceramide isomers. As the standards, ceramide III (consisting of ceramides 1 and 2) and ceramide IV (consisting of ceramides 4 and 5) both manufactured by Sigma wer used. Here, total ceramide means the total of ceramides 1, 2, 4 and 5, and ceramide III means the total of ceramides 1 and 2. The ceramides 1, 2, 4 and 5 correspond to the compounds 1, 2, 4 and 5, respectively, described in FIG. 2 of Journal of Lipid Research, 24, 559 (1983)."}, "[3]": {"test_system": "auricular edema in atopic dermatitis-induced model mice (Type I Allergy Model)", "assay": "Auricular edema inhibition in atopic dermatitis-induced model mice (type I allergy model, tick extract)", "type": "in vivo, NC/Nga mouse", "settings": "for Relative auricular edema increase (%): 20 μl to both sides of auricle once a day from 7th day, measured on 28th day, mean ± SD, n=6", "experimental": "Test Compositions 6 to 8 were obtained by preparing 30% by weight aqueous ethanol solutions containing 0, 1.0 and 3.0% by weight, respectively, of N-acetyl-trans-4-hydroxy-L-proline. The pH values of the aqueous solutions were adjusted to 4.5 with sodium hydroxide.\nAtopic dermatitis using NC/Nga mice was carried out in a same manner similar to the method of Sasagawa et al. [16th Japanese Society of Disease Models (1999)]. Auricular edema was induced by intradermal injection of 20 μg of a tick (Dermatophagoides pteronyssinus) extract as the antigen into the auricle of NC/Nga mouse (male, 8 week old, available from Charles River Japan, Inc.), once a day at a predetermined time in the 1st day, 3rd day and every day from 7th days after starting of the test. Each of Test Compositions 6 to 8 was applied at 20 μl to both sides of the auricle as the tested region, 6 hours after administration of the tick extract, once a day from the 7th day after starting of the test. The mice were used as six animals per each group.\nA thickness of the auricle was measured on the 28th day after starting of the test using a dial thickness gauge (G-1A, manufactured by PEACOCK), and the relative auricular edema increase (%) was calculated in accordance with the following equation.\nas §1, §2, §3, §4, §5"}, "[4]": {"settings": "concentration of 1 to 3% by weight, long period of continuous use"}},
  "data": [
    {"smiles": "CC(=O)N1C[C@H](O)C[C@H]1C(=O)O", "note": "[N-acetyl-trans-4-hydroxy-L-proline]", "values": [
      {"measurement": "Relative auricular edema increase (%)", "setting": "[1]; 11th day after starting of test", "value": "360.1 ± 64.2", "unit": "%"},
      {"measurement": "Relative auricular edema increase (%)", "setting": "[1]; 12th day after starting of test", "value": "399.7 ± 55.9", "unit": "%"},
      {"measurement": "Relative auricular edema increase (%)", "setting": "[1]; 14th day after starting of test", "value": "429.0 ± 72.3", "unit": "%"},
      {"measurement": "Relative auricular edema increase (%)", "setting": "[1]; 17th day after starting of test", "value": "312.1 ± 50.6", "unit": "%"},
      {"measurement": "inhibition of auricular edema caused by the type I and type IV allergy models", "setting": "[1]; concentration of 3% by weight, long period of continuous use", "value": "significantly inhibited"},
      {"measurement": "Relative amount of total ceramide synthesis (%)", "setting": "[2]; 1% by weight in 30% aqueous ethanol pH 4.5, 200 μl to dorsal skin once a day for one month", "value": 218.6, "unit": "%"},
      {"measurement": "Relative amount of ceramide III synthesis (%)", "setting": "[2]; 1% by weight", "value": 239.5, "unit": "%"},
      {"measurement": "Relative amount of total ceramide synthesis (%)", "setting": "[2]; 3% by weight in 30% aqueous ethanol pH 4.5, 200 μl to dorsal skin once a day for one month", "value": 170.6, "unit": "%"},
      {"measurement": "Relative amount of ceramide III synthesis (%)", "setting": "[2]; 3% by weight", "value": 321.1, "unit": "%"},
      {"measurement": "Relative amount of ceramide III synthesis (%)", "setting": "[2]; 5% by weight", "value": 209.6, "unit": "%"},
      {"measurement": "Relative amount of ceramide III synthesis (%)", "setting": "[2]; 10% by weight", "value": 185.9, "unit": "%"},
      {"measurement": "total ceramide content in the epidermal stratum corneum", "setting": "[2]; [4]", "value": "significant increase"},
      {"measurement": "ceramide III in the epidermal stratum corneum", "setting": "[2]; concentration of 1 to 10% by weight, long period of continuous use", "value": "significant increase"},
      {"measurement": "Relative auricular edema increase (%)", "setting": "[3]; 1% by weight", "value": "120.9 ± 3.5", "unit": "%"},
      {"measurement": "Relative auricular edema increase (%)", "setting": "[3]; 3% by weight", "value": "110.1 ± 4.4", "unit": "%"},
      {"measurement": "inhibition of auricular edema caused by the type I allergy model", "setting": "[3]; [4]", "value": "significantly inhibited"}
    ]}
  ]
}
